Results: PubChem BioAssay AID1919004 (Molecular Pharmacology Branch, DTP, NCI, 2023)

Test system: 883617-216-R-J1-PDC complex spheroids, growth, % test/control
Test: Anticancer human tumor 883617-216-R-J1-PDC patient-derived bladder carcinoma cell line growth inhibition [AhR]
Conditions: for IC50: curve of first compound; for viability, T/C: stronger effect = lower value; active means viability on the fitted dose curve at most 10% of control; inactive means the rest
Procedure, shortened: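 Agents were dosed in half-log steps down from roughly clinical Cmax, or from 10 microM where Cmax was unknown, alone and with AhR antagonists. Read-out: percent test/control growth of tumor spheroids containing HUVEC and MSC stromal cells.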

[1] = second compound 0.1 µM, first compound 0.0316 µM
[2] = second compound 0.1 µM, first compound 0.1 µM
[3] = second compound 0.1 µM, first compound 0.316 µM
[4] = second compound 0.1 µM, first compound 1 µM
[5] = second compound 0.1 µM, first compound 3.16 µM
[6] = second compound 0.1 µM, first compound 10 µM
[7] = second compound 0.316 µM, first compound 0.0316 µM
[8] = second compound 0.316 µM, first compound 0.1 µM
[9] = second compound 0.316 µM, first compound 0.316 µM
[10] = second compound 0.316 µM, first compound 1 µM
[11] = second compound 0.316 µM, first compound 3.16 µM
[12] = second compound 0.316 µM, first compound 10 µM
[13] = second compound 1 µM, first compound 0.0316 µM
[14] = second compound 1 µM, first compound 0.1 µM
[15] = second compound 1 µM, first compound 0.316 µM
[16] = second compound 1 µM, first compound 1 µM
[17] = second compound 1 µM, first compound 3.16 µM
[18] = second compound 1 µM, first compound 10 µM
[19] = second compound 3.16 µM, first compound 0.0316 µM
[20] = second compound 3.16 µM, first compound 0.1 µM
[21] = second compound 3.16 µM, first compound 0.316 µM
[22] = second compound 3.16 µM, first compound 1 µM
[23] = second compound 3.16 µM, first compound 3.16 µM
[24] = second compound 3.16 µM, first compound 10 µM
[25] = second compound 10 µM, first compound 0.0316 µM
[26] = second compound 10 µM, first compound 0.1 µM
[27] = second compound 10 µM, first compound 0.316 µM
[28] = second compound 10 µM, first compound 1 µM
[29] = second compound 10 µM, first compound 3.16 µM
[30] = second compound 10 µM, first compound 10 µM
[31] = second compound 0.1 µM, first compound 0.00949 µM
[32] = second compound 0.1 µM, first compound 0.03 µM
[33] = second compound 0.1 µM, first compound 0.0949 µM
[34] = second compound 0.1 µM, first compound 0.3 µM
[35] = second compound 0.316 µM, first compound 0.00949 µM
[36] = second compound 0.316 µM, first compound 0.03 µM
[37] = second compound 0.316 µM, first compound 0.0949 µM
[38] = second compound 0.316 µM, first compound 0.3 µM
[39] = second compound 1 µM, first compound 0.00949 µM
[40] = second compound 1 µM, first compound 0.03 µM
[41] = second compound 1 µM, first compound 0.0949 µM
[42] = second compound 1 µM, first compound 0.3 µM
[43] = second compound 3.16 µM, first compound 0.00949 µM
[44] = second compound 3.16 µM, first compound 0.03 µM
[45] = second compound 3.16 µM, first compound 0.0949 µM
[46] = second compound 3.16 µM, first compound 0.3 µM
[47] = second compound 10 µM, first compound 0.00949 µM
[48] = second compound 10 µM, first compound 0.03 µM
[49] = second compound 10 µM, first compound 0.0949 µM
[50] = second compound 10 µM, first compound 0.3 µM
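Further: exposure lasted 7 days after dosing on day 3 of spheroid growth.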

CC1(C)CCC(CN2CCN(c3ccc(C(=O)NS(=O)(=O)c4ccc(NCC5CCOCC5)c([N+](=O)[O-])c4)c(Oc4cnc5[nH]ccc5c4)c3)CC2)=C(c2ccc(Cl)cc2)C1 + CC(CO)NC(=O)c1cc(-c2ccc(Cl)cc2)nn(-c2cnn(C)c2)c1=O
> 10 µM: IC50 (second compound 0.1 µM) | IC50 (second compound 0.316 µM) | IC50 (second compound 1 µM) | IC50 (second compound 3.16 µM) | IC50 (second compound 10 µM)
inactive: viability, T/C [1] 77% | viability, T/C [2] 90.8% | viability, T/C [3] 136% | viability, T/C [4] 95.4% | viability, T/C [5] 90.3% | viability, T/C [6] 59.4% | viability, T/C [7] 83.2% | viability, T/C [8] 93.9% | viability, T/C [9] 102% | viability, T/C [10] 88.2% | viability, T/C [11] 96.9% | viability, T/C [12] 68.5% | viability, T/C [13] 90.6% | viability, T/C [14] 114% | viability, T/C [15] 152% | viability, T/C [16] 71.4% | viability, T/C [17] 82.4% | viability, T/C [18] 78.2% | viability, T/C [19] 79.5% | viability, T/C [20] 132% | viability, T/C [21] 97.1% | viability, T/C [22] 115% | viability, T/C [23] 83.4% | viability, T/C [24] 68.7% | viability, T/C [25] 91.9% | viability, T/C [26] 143% | viability, T/C [27] 171% | viability, T/C [28] 83.9% | viability, T/C [29] 122% | viability, T/C [30] 103%

CC1COCCN1c1cc(C2(S(C)(=N)=O)CC2)nc(-c2ccnc3[nH]ccc23)n1 (stereo not given) + CC(CO)NC(=O)c1cc(-c2ccc(Cl)cc2)nn(-c2cnn(C)c2)c1=O
inactive: viability, T/C [1] 155% | viability, T/C [2] 133% | viability, T/C [3] 120% | viability, T/C [4] 78.7% | viability, T/C [5] 86.9% | viability, T/C [6] 108% | viability, T/C [7] 73.3% | viability, T/C [8] 143% | viability, T/C [9] 107% | viability, T/C [10] 56.3% | viability, T/C [11] 70.1% | viability, T/C [12] 72.1% | viability, T/C [13] 142% | viability, T/C [14] 102% | viability, T/C [15] 152% | viability, T/C [16] 121% | viability, T/C [17] 103% | viability, T/C [18] 77.5% | viability, T/C [19] 103% | viability, T/C [20] 94.4% | viability, T/C [21] 132% | viability, T/C [22] 132% | viability, T/C [23] 86.2% | viability, T/C [24] 66.5% | viability, T/C [25] 127% | viability, T/C [26] 101% | viability, T/C [27] 125% | viability, T/C [28] 153% | viability, T/C [29] 107% | viability, T/C [30] 114%
> 10 µM: IC50 (second compound 0.1 µM) | IC50 (second compound 0.316 µM) | IC50 (second compound 1 µM) | IC50 (second compound 3.16 µM) | IC50 (second compound 10 µM)

CCN(c1cc(-c2ccc(CN3CCOCC3)cc2)cc(C(=O)NCc2c(C)cc(C)[nH]c2=O)c1C)C1CCOCC1 + CC(CO)NC(=O)c1cc(-c2ccc(Cl)cc2)nn(-c2cnn(C)c2)c1=O
> 3 µM: IC50 (second compound 0.1 µM) | IC50 (second compound 0.316 µM) | IC50 (second compound 1 µM) | IC50 (second compound 3.16 µM)
2.65 µM: IC50 (second compound 10 µM)
inactive: viability, T/C [31] 94.7% | viability, T/C [32] 101% | viability, T/C [33] 75.5% | viability, T/C [34] 85.5% | viability, T/C (second compound 0.1 µM, first compound 0.949 µM) 118% | viability, T/C (second compound 0.1 µM, first compound 3 µM) 112% | viability, T/C [35] 83.9% | viability, T/C [36] 70.8% | viability, T/C [37] 76.5% | viability, T/C [38] 88.5% | viability, T/C (second compound 0.316 µM, first compound 0.949 µM) 77.7% | viability, T/C (second compound 0.316 µM, first compound 3 µM) 80.8% | viability, T/C [39] 96.1% | viability, T/C [40] 63.2% | viability, T/C [41] 92.5% | viability, T/C [42] 98.4% | viability, T/C (second compound 1 µM, first compound 0.949 µM) 124% | viability, T/C (second compound 1 µM, first compound 3 µM) 86% | viability, T/C [43] 80.7% | viability, T/C [44] 85% | viability, T/C [45] 122% | viability, T/C [46] 102% | viability, T/C (second compound 3.16 µM, first compound 0.949 µM) 60.4% | viability, T/C (second compound 3.16 µM, first compound 3 µM) 100% | viability, T/C [47] 62.8% | viability, T/C [48] 88.9% | viability, T/C [49] 74.5% | viability, T/C [50] 132% | viability, T/C (second compound 10 µM, first compound 0.949 µM) 98.5% | viability, T/C (second compound 10 µM, first compound 3 µM) 45%

Nc1ncn(C2CC(O)C(CO)S2)c(=O)n1 (stereo not given) + CC(CO)NC(=O)c1cc(-c2ccc(Cl)cc2)nn(-c2cnn(C)c2)c1=O
inactive: viability, T/C (second compound 0.1 µM, first compound 0.000949 µM) 65.6% | viability, T/C (second compound 0.1 µM, first compound 0.003 µM) 57.9% | viability, T/C [31] 65% | viability, T/C [32] 76.6% | viability, T/C [33] 80.2% | viability, T/C [34] 85.5% | viability, T/C (second compound 0.316 µM, first compound 0.000949 µM) 72.1% | viability, T/C (second compound 0.316 µM, first compound 0.003 µM) 112% | viability, T/C [35] 70.8% | viability, T/C [36] 104% | viability, T/C [37] 65.7% | viability, T/C [38] 49.2% | viability, T/C (second compound 1 µM, first compound 0.000949 µM) 69.9% | viability, T/C (second compound 1 µM, first compound 0.003 µM) 66.6% | viability, T/C [39] 78.5% | viability, T/C [40] 118% | viability, T/C [41] 43.9% | viability, T/C [42] 89.8% | viability, T/C (second compound 3.16 µM, first compound 0.000949 µM) 71% | viability, T/C (second compound 3.16 µM, first compound 0.003 µM) 80.3% | viability, T/C [43] 75.6% | viability, T/C [44] 76% | viability, T/C [45] 72.2% | viability, T/C [46] 92.9% | viability, T/C (second compound 10 µM, first compound 0.000949 µM) 67.4% | viability, T/C (second compound 10 µM, first compound 0.003 µM) 74.7% | viability, T/C [47] 76.2% | viability, T/C [48] 71.9% | viability, T/C [49] 102% | viability, T/C [50] 111%
> 0.3 µM: IC50 (second compound 0.1 µM) | IC50 (second compound 1 µM) | IC50 (second compound 3.16 µM) | IC50 (second compound 10 µM)
0.288 µM: IC50 (second compound 0.316 µM)
